What is called EC50 is the concentration that produces a half-maximal response.

Numbered stars: 1 amine (or outer) side, 2 acyl side, 3 side chain; on linkers, the order of the positions; unused ones are H or OH. Bridge positions count the residues as written; N and C are the ends. Square brackets hold non-standard residues; d marks the D form. Peptide text beside a SMILES is read from it. X16 = C=CCOC(=O)N1CC[C@@](N[*:1])(C(=O)[*:2])C1; X10 = CN(CC=[*:3])C[C@@](C)(N[*:1])C(=O)[*:2]; X14 = O=C([C@@]1(N[*:1])CCN(CC=[*:3])C1)[*:2]; R8 = C=CCCCCCC[C@@](C)(N)C(=O)O; S8 = C=CCCCCCC[C@](C)(N)C(=O)O

Our source for the EC50 values is patent US11198713B2, “Agents modulating beta-catenin functions and methods thereof” (FOG PHARMACEUTICALS, INC., priority 2017, dated 2021).

The target in one assay is T1, full-length beta-catenin (Axin site) (Homo sapiens, UniProt P35222).
T1 construct: 15 nM full-length beta-catenin, 20 nM FITC labeled peptide in buffer
T1 sequence (P35222 1-781): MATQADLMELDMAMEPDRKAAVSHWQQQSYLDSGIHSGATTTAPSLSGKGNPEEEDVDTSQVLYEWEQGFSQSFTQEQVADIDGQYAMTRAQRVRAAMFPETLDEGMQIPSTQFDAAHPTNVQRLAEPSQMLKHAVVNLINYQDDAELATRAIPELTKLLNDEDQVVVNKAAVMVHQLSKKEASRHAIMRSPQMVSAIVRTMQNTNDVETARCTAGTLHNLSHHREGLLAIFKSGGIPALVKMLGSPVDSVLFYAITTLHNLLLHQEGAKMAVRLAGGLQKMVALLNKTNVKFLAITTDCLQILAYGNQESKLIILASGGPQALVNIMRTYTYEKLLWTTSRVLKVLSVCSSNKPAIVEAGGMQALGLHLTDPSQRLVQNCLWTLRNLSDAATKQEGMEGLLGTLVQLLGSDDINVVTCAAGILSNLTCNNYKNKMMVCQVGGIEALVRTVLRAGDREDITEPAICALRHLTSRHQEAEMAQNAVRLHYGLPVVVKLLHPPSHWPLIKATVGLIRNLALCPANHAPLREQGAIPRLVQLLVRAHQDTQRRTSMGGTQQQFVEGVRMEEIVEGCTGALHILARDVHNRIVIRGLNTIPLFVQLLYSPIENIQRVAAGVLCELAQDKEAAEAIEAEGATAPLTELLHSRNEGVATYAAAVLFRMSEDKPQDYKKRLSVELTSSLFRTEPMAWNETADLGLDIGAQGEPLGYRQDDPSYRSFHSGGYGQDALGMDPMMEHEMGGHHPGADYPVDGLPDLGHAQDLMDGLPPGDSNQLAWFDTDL
Briefly: Competition fluorescence polarization assay (Axin site probe). To be noted: competition fluorescence polarization, Table 2; read-out: in vitro FP EC50. Type of assay: binding. Summed up: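 Competition FP: 15 nM full-length β-catenin pre-incubated 5 min with 20 nM FITC-labelled stapled Axin-site peptide, then titrated peptide added (3-fold series from 5 μM) for 15 min in the dark. Buffer 50 mM Tris pH 8.0, 250 mM NaCl, 2% glycerol, 0.5 mM EDTA; duplicate reads.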
A general note: Polarisation of emitted light reports the rotation of a fluorescent probe.
As to `CC[C@H](C)[C@@H]1NC(=O)[C@@]2(NC(=O)[C@H](C)NC(=O)[C@@H]3CCCN3C(C)=O)CCN(C2)C(=O)OCC=CCCCCCC[C@@](C)(C(=O)N[C@@H](CCCNC(=N)N)C(=O)N[C@H](C(=O)N[C@@H](Cc2c[nH]c3ccccc23)C(N)=O)C(C)C)NC(=O)[C@H](C(C)C)NC(=O)[C@H](Cc2c[nH]cn2)NC(=O)[C@H](C)NC(=O)[C@H](CC(=O)O)NC(=O)[C@H](CC(C)C)NC1=O` [FP0005c, Ac-P-A-MC-I-L-D-A-H-V-S8-R-V-W-NH2], the concentration giving a half-maximal response (EC50) was below 0.1 µM.

Consider `CC[C@H](C)[C@@H]1NC(=O)[C@@]2(NC(=O)[C@H](C)NC(=O)[C@@H]3CCCN3C(C)=O)CCN(CC=CCCCCCC[C@@](C)(C(=O)N[C@@H](CCCNC(=N)N)C(=O)N[C@H](C(=O)N[C@@H](Cc3c[nH]c4ccccc34)C(N)=O)C(C)C)NC(=O)[C@H](C(C)C)NC(=O)[C@H](Cc3c[nH]cn3)NC(=O)[C@H](C)NC(=O)[C@H](CC(=O)O)NC(=O)[C@H](CC(C)C)NC1=O)C2` [FP0006a, Ac-P-A-MC-I-L-D-A-H-V-S8-R-V-W-NH2] (Ac-PA[X14]ILDAHV[S8]RVW-NH2; staple 3-10), for which the EC50 is below 0.1 µM.

As to `C=CCCCCCC[C@@](C)(NC(=O)[C@H](C)NC(C)=O)C(=O)N[C@H](C(=O)N[C@@H](CC(C)C)C(=O)N[C@@H](CC(=O)O)C(=O)N[C@@H](C)C(=O)N[C@@H](Cc1c[nH]cn1)C(=O)N[C@H](C(=O)N[C@@]1(C(=O)N[C@@H](CCCNC(=N)N)C(=O)N[C@H](C(=O)N[C@@H](Cc2c[nH]c3ccccc23)C(N)=O)C(C)C)CCN(C(=O)OCC=C)C1)[C@@H](C)CC)[C@@H](C)CC` [FP0217u, Ac-A-R8-I-L-D-A-H-I-MB-R-V-W-NH2] (Ac-A[R8]ILDAHI[X16]RVW-NH2), the EC50 was below 0.1 µM.

Take `CC[C@H](C)[C@@H]1NC(=O)[C@H](Cc2c[nH]cn2)NC(=O)[C@H](C)NC(=O)[C@H](CC(N)=O)NC(=O)[C@H](CC(C)C)NC(=O)[C@H]([C@@H](C)CC)NC(=O)[C@](C)(NC(=O)[C@H](C)NC(C)=O)CCCCCCC=CCOC(=O)N2CC[C@@](C(=O)N[C@@H](CCCNC(=N)N)C(=O)N[C@H](C(=O)N[C@@H](Cc3c[nH]c4ccccc34)C(N)=O)C(C)C)(C2)NC1=O` [FP0218c, Ac-A-R8-I-L-N-A-H-I-MB-R-V-W-NH2]: the EC50 was in the range of 0.1 to 0.5 µM.

Take `CC[C@H](C)[C@@H]1NC(=O)[C@H](Cc2c[nH]cn2)NC(=O)[C@H](C)NC(=O)[C@H]([C@@H](C)O)NC(=O)[C@H](CC(C)C)NC(=O)[C@H]([C@@H](C)CC)NC(=O)[C@](C)(NC(=O)[C@H](C)NC(C)=O)CCCCCCC=CCOC(=O)N2CC[C@@](C(=O)N[C@@H](CCCNC(=N)N)C(=O)N[C@H](C(=O)N[C@@H](Cc3c[nH]c4ccccc34)C(N)=O)C(C)C)(C2)NC1=O` [FP0219c, Ac-A-R8-I-L-T-A-H-I-MB-R-V-W-NH2]: the half-maximal effective concentration (EC50) was 0.1 to 0.5 µM.

With `CC[C@H](C)[C@@H]1NC(=O)[C@H](Cc2c[nH]cn2)NC(=O)[C@H](C)NC(=O)[C@H](CC(=O)O)NC(=O)[C@H](CC(C)C)NC(=O)[C@H]([C@@H](C)CC)NC(=O)[C@](C)(NC(=O)[C@H](C)NC(C)=O)CN(C)CC=CCCCCCC[C@@](C)(C(=O)N[C@@H](CCCNC(=N)N)C(=O)N[C@H](C(=O)N[C@@H](Cc2c[nH]c3ccccc23)C(N)=O)C(C)C)NC1=O` [FP0335a, Ac-A-ME-I-L-D-A-H-I-S8-R-V-W-NH2] (Ac-A[X10]ILDAHI[S8]RVW-NH2; staple 2-9), the half-maximal effective concentration (EC50) lay in the range of 0.1 to 0.5 µM.

Take `CC[C@H](C)[C@@H]1NC(=O)[C@H](Cc2c[nH]cn2)NC(=O)[C@H](C)NC(=O)[C@H](CC(=O)O)NC(=O)[C@H](CC(C)C)NC(=O)[C@H](C)NC(=O)[C@](C)(NC(=O)[C@H](C)NC(C)=O)CCCCCCC=CCOC(=O)N2CC[C@@](C(=O)N[C@@H](CCCNC(=N)N)C(=O)N[C@H](C(=O)N[C@@H](Cc3c[nH]c4ccccc34)C(N)=O)C(C)C)(C2)NC1=O` [FP0405c, Ac-A-R8-A-L-D-A-H-I-MB-R-V-W-NH2]: the half-maximal effective concentration (EC50) fell in the range of 0.5 to 5 µM.

As for `CC[C@H](C)[C@@H]1NC(=O)[C@H](Cc2c[nH]cn2)NC(=O)[C@H](C)NC(=O)[C@H](CC(=O)O)NC(=O)[C@H](C)NC(=O)[C@H]([C@@H](C)CC)NC(=O)[C@](C)(NC(=O)[C@H](C)NC(C)=O)CCCCCCC=CCOC(=O)N2CC[C@@](C(=O)N[C@@H](CCCNC(=N)N)C(=O)N[C@H](C(=O)N[C@@H](Cc3c[nH]c4ccccc34)C(N)=O)C(C)C)(C2)NC1=O` [FP0406c, Ac-A-R8-I-A-D-A-H-I-MB-R-V-W-NH2], the half-maximal effective concentration (EC50) was 0.1 to 0.5 µM.

For the molecule `CC[C@H](C)[C@@H]1NC(=O)[C@H](Cc2c[nH]cn2)NC(=O)[C@H](C)NC(=O)[C@H](C)NC(=O)[C@H](CC(C)C)NC(=O)[C@H]([C@@H](C)CC)NC(=O)[C@](C)(NC(=O)[C@H](C)NC(C)=O)CCCCCCC=CCOC(=O)N2CC[C@@](C(=O)N[C@@H](CCCNC(=N)N)C(=O)N[C@H](C(=O)N[C@@H](Cc3c[nH]c4ccccc34)C(N)=O)C(C)C)(C2)NC1=O` [FP0407c, Ac-A-R8-I-L-A-A-H-I-MB-R-V-W-NH2], the concentration for a half-maximal effect (EC50) is 0.5 to 5 µM.

On to `CC[C@H](C)[C@@H]1NC(=O)[C@H](C)NC(=O)[C@H](C)NC(=O)[C@H](CC(=O)O)NC(=O)[C@H](CC(C)C)NC(=O)[C@H]([C@@H](C)CC)NC(=O)[C@](C)(NC(=O)[C@H](C)NC(C)=O)CCCCCCC=CCOC(=O)N2CC[C@@](C(=O)N[C@@H](CCCNC(=N)N)C(=O)N[C@H](C(=O)N[C@@H](Cc3c[nH]c4ccccc34)C(N)=O)C(C)C)(C2)NC1=O` [FP0408c, Ac-A-R8-I-L-D-A-A-I-MB-R-V-W-NH2], for which the EC50 was above 5 µM.

On to `CC[C@H](C)[C@@H]1NC(=O)[C@](C)(NC(=O)[C@H](C)NC(C)=O)CCCCCCC=CCOC(=O)N2CC[C@@](C(=O)N[C@@H](CCCNC(=N)N)C(=O)N[C@H](C(=O)N[C@@H](Cc3c[nH]c4ccccc34)C(N)=O)C(C)C)(C2)NC(=O)[C@H](C)NC(=O)[C@H](Cc2c[nH]cn2)NC(=O)[C@H](C)NC(=O)[C@H](CC(=O)O)NC(=O)[C@H](CC(C)C)NC1=O` [FP0409c, Ac-A-R8-I-L-D-A-H-A-MB-R-V-W-NH2], for which the EC50 is above 5 µM.

Consider `CC[C@H](C)[C@@H]1NC(=O)[C@H](Cc2c[nH]cn2)NC(=O)[C@H](C)NC(=O)[C@H](CC(=O)O)NC(=O)[C@H](CC(C)C)NC(=O)[C@H]([C@@H](C)CC)NC(=O)[C@](C)(NC(=O)[C@H](C)NC(C)=O)CCCCCCC=CCOC(=O)N2CC[C@@](C(=O)N[C@@H](C)C(=O)N[C@H](C(=O)N[C@@H](Cc3c[nH]c4ccccc34)C(N)=O)C(C)C)(C2)NC1=O` [FP0410c, Ac-A-R8-I-L-D-A-H-I-MB-A-V-W-NH2], for which the EC50 was 0.1 to 0.5 µM.

Staying with this assay, now noted: competition with FITC labeled Axin-site probe, 15 nM full-length beta-catenin; read-out: FP EC50.
For the molecule `CC[C@H](C)[C@@H]1NC(=O)[C@](C)(NC(=O)[C@H](CCC(N)=O)NC(=O)[C@@H]2CCCN2C(C)=O)CCCC=CCN(C)CC[C@](C)(C(=O)N[C@@H](Cc2c[nH]cn2)C(=O)N[C@H](C(=O)N[C@@H](CCCNC(=N)N)C(=O)N[C@@H](CCCNC(=N)N)C(=O)N[C@H](C(=O)N[C@@H](Cc2c[nH]c3ccccc23)C(=O)N[C@@H](CCCNC(=N)N)C(N)=O)C(C)C)C(C)C)NC(=O)[C@H](CC(=O)O)NC(=O)[C@H](CC(C)C)NC1=O` (single isomer, unassigned) [FP-0776, Ac-P-Q-R5-I-L-D-RdN-H-V-R-R-V-W-R-NH2], the 50% effective concentration (EC50) came to 0.58 µM.

On to `CC[C@H](C)[C@@H]1NC(=O)[C@@](C)(NC(=O)[C@H](CCC(N)=O)NC(=O)[C@@H]2CCCN2C(C)=O)CCN(C)C(=O)OCC=CCCC[C@@](C)(C(=O)N[C@@H](Cc2c[nH]cn2)C(=O)N[C@H](C(=O)N[C@@H](CCCNC(=N)N)C(=O)N[C@@H](CCCNC(=N)N)C(=O)N[C@H](C(=O)N[C@@H](Cc2c[nH]c3ccccc23)C(=O)N[C@@H](CCCNC(=N)N)C(N)=O)C(C)C)C(C)C)NC(=O)[C@H](CC(=O)O)NC(=O)[C@H](CC(C)C)NC1=O` (single isomer, unassigned) [FP-0779c, Ac-P-Q-SdN-I-L-D-S5-H-V-R-R-V-W-R-NH2], for which the EC50 was determined as 1.3 µM.

For `CC[C@H](C)[C@@H]1NC(=O)[C@](C)(NC(=O)[C@H](CCC(N)=O)NC(=O)[C@@H]2CCCN2C(C)=O)CCCN(C)CC=CCCC[C@](C)(C(=O)N[C@@H](Cc2c[nH]cn2)C(=O)N[C@H](C(=O)N[C@@H](CCCNC(=N)N)C(=O)N[C@@H](CCCNC(=N)N)C(=O)N[C@H](C(=O)N[C@@H](Cc2c[nH]c3ccccc23)C(=O)N[C@@H](CCCNC(=N)N)C(N)=O)C(C)C)C(C)C)NC(=O)[C@H](CC(=O)O)NC(=O)[C@H](CC(C)C)NC1=O` (single isomer, unassigned) [FP-0783, Ac-P-Q-ReN-I-L-D-R5-H-V-R-R-V-W-R-NH2], the EC50 is 1.4 µM.

Take `CC[C@H](C)[C@@H]1NC(=O)[C@@](C)(NC(=O)[C@H](CCC(N)=O)NC(=O)[C@@H]2CCCN2C(C)=O)CCCC=CCCC[C@@](C)(C(=O)N[C@@H](Cc2c[nH]cn2)C(=O)N[C@H](C(=O)N[C@@H](CCCNC(=N)N)C(=O)N[C@@H](CCCNC(=N)N)C(=O)N[C@H](C(=O)N[C@@H](Cc2c[nH]c3ccccc23)C(=O)N[C@@H](CCCNC(=N)N)C(N)=O)C(C)C)C(C)C)NC(=O)[C@H](CC(=O)O)NC(=O)[C@H](CC(C)C)NC1=O` (single isomer, unassigned) [FP-0787]: the EC50 was around 0.1 µM.
